Values joined by “and” are separate entries in the source; they are usually repeats but may differ in a detail not shown here. Equal entries are not always repeated.
Experiments:
[1] = target: T1, binary-RANKL (L-RANKL, mRANKL mimic) (Rattus norvegicus, UniProt Q9ESE2, D175N); test: Isothermal titration calorimetry (ITC) with binary-RANKL; type: binding; details: 25 °C, PBS 0.8% DMSO; read-out: ITC KD with binary-RANKL (printed +mRANKL in Fig. 3a)
T1 construct: (3) mRANKL (sRANKL-GSGS-sRANKL, rat 159-318 aa); His6-sumo (N); made in house; host or cells: Escherichia coli BL21 (DE3)
T1 sequence (Q9ESE2 with tags, fused parts or gaps D175N): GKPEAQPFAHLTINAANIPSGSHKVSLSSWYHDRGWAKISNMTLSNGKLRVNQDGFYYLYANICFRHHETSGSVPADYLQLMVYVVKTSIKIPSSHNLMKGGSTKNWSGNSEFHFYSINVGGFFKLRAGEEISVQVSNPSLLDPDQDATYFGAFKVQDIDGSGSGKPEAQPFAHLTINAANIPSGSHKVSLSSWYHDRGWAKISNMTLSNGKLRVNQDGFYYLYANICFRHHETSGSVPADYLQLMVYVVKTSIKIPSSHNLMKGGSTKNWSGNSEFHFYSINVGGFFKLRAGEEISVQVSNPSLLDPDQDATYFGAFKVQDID
Description: ITC titrations were performed on the MicroCal iTC200 system at 25 °C[55]. Working stocks of compound S3-15 were prepared in 100% DMSO at 50 mM and then diluted to 500 μM at PBS with final DMSO concentration at 0.8% (v/v). PBS with 0.8% DMSO was used as ITC buffer. Purified sRANKL or L-RANKL protein was buffer exchanged into same ITC buffer using a Millipore spin column. S3-15 at 500 μM was loaded into a syringe and protein was loaded into an isothermal calorimeter cell. During titration, S3-15 in the […] was injected (2 μL per injection, 25 injections in total, and 180 s between each injection) regularly from a rotating syringe into protein solution in the isothermal calorimeter cell. The sample cell was stirred at 385 rpm. Reference cell power was set to 5 μcal/s. Control experiments were conducted under the same conditions using buffer solution instead of S3-15. Data were analyzed using a one-site binding model in Origin 7.1 software for ITC version 7.0 (MicroCal). The dissociation constant, KD, was calculated according to equation KD = 1/K. All other parameters, K ([…]), N (varying the stoichiometry), ΔH (enthalpy of the reaction), and ΔG ([…] of the reaction) were determined from the titration data.

[2] = target: mouse mRANKL and mouse OPG (Mus musculus, UniProt O35235); test: mRANKL-OPG binding, HEK 293T cells with full length mouse RANKL; type: cell-based
mouse mRANKL and mouse OPG, sequence (O35235 whole entry): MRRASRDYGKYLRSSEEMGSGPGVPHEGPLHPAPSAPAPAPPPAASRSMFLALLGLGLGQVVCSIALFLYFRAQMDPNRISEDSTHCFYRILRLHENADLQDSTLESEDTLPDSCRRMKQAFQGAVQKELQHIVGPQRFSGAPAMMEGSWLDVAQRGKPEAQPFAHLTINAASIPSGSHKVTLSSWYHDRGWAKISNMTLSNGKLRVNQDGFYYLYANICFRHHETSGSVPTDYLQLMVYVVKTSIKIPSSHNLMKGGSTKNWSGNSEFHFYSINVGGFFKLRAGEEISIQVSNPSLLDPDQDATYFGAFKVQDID
Description: (§1) mRANKL-OPG: MC3T3-E1 cells were differentiated by osteoblast differentiation medium (Pythonbio, China) for 2 days. Then cells were exposed to 1 M NaCl for 5 minutes to remove endogenous OPG, washed once in PBS, and fixed with 70% ethanol for 5 minutes at 4 °C. Fixed cells were wash once by PBS and then exposed to PBS that containing 100 ng mouse OPG (Sino, China) or 100 ng mouse OPG with 1 μM S3-15 and incubated for an additional 30 min at 4 °C. Cell layers were washed 2 times with PBS and lysed with 1% triton in PBS. The concentration of OPG in cell lysates were measured with an OPG ELISA kit (USCN, China). Similar proceed were performed using HEK 293 T cells that transfer full length mouse RANKL or human RANKL.

[3] = target: T2, human mRANKL and human OPG (Homo sapiens, UniProt O14788); test: mRANKL-OPG binding, HEK 293T cells with full length human RANKL; type: cell-based
T2 construct: HEK 293 T cells that transfer full length mouse RANKL or human RANKL; expressed in transfected cells; host or cells: HEK293T
T2 sequence (O14788 whole entry): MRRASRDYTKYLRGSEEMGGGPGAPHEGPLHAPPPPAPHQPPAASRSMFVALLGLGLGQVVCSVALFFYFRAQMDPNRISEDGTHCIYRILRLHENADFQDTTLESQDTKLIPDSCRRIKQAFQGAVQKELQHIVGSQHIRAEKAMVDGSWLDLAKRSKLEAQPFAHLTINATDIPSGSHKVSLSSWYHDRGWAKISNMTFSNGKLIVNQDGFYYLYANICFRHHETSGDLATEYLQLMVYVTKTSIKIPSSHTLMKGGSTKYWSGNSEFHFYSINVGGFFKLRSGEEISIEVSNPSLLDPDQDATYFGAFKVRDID
Description: as §1

[4] = system: NF-κB; test: Reporter-gene assay for NF-κB; type: cell-based, mouse; design: NF-κB luciferase expression (fig. 6c): unit not given here; details: for NF-κB luciferase expression (fig. 6c): sRANKL stimulated; for reporter signal (fig. S3h): three replicates
Description: In order to investigate the NF-κB and NFAT transcriptional inhibition activity of selective sRANKL inhibitor, luciferase reporter gene assays were used[57]. RAW 264.7 cells stably transfected with an NF-κB luciferase reporter gene (3κB-Luc-SV40) or NFAT luciferase reporter gene were seeded into 96-well plates at a density of 1.5 × 10^5 or 1.0 × 10^5 cell per well respectively for 24 h. Cells were pretreated with compounds for 1 h, and then stimulated with sRANKL (100 ng/mL), TNF-ɑ (20 ng/mL), […] (50 ng/mL) and LPS (500 ng/mL) for 6 h for NF-κB transcriptional or 24 h for NFAT transcriptional. After treatment both cells were lysed and measured luciferase activity using a Promega Luciferase Assay system (Promega Corporation) by a Varioskan flash Multimode Microplate Reader (Thermo Scientific).

[5] = system: OVX mice; test: Three-point bending test of femur (biomechanical strength); type: in vivo, mouse; details: OVX mice + S3-15, individual animals
Description: The weight of rats or mice were recorded every week in the treatment period. After treatment, the rats were harvested, the serum, heart, liver, spleen, lung, kidney, thymus, and femurs were all collected and subjected to subsequent analysis. The right femurs of rats or mice were cleaned excess soft tissue, fixed in 10% formalin, and processed them for microcomputed tomography (micro-CT) analysis. Left mice femurs were collected and excarnate for biomechanical strength testing. Mice peripheral blood were as well as collected for flow cytometry analyzing.

[6] = system: OVX mice; test: Splenic lymphocyte transformation test; type: in vivo, mouse; design: key: OD (MTT) of stimulated minus unstimulated cells; details: OVX mice + S3-15 4 weeks, individual animals
Description: Spleens were aseptically isolated from sham group, OVX group and OVX treatment group after treating S3-15 for 4 weeks in a clean bench (II Class biosafety Cabinets, Escolifesciences, Singapore). Splenic single cell suspensions were obtained by gentle squeezing spleen tissue by injecting 2 mL cold Hank’s solution. Splenic cells were filtered through 40 μm nylon filters (BD Biosciences, Darmstadt, Germany), and centrifuged at 1400 × g for 10 min. Then cells were resuspended in 1640 completed medium (containing 10%FBS, 1% penicillin/streptomycin, 1% glutamine (200 mmol/L) and 5 × 10^−5 mol/L 2-mercaptoethanol) with a concentration of 5 × 10^6 cells/mL and seeded 100 μL into 96-well plates. Two wells for each mouse, and one well stimulated with 50 μL […] (Sigma-Aldrich®, Germany) solution (working concentration 7.5 μg/mL in 1640 completed medium), another well added 50 μL 1640 complete medium as a control. After that, the plates were incubated at 37 °C in a CO2 incubator at 5% CO2 for 72 h. After stimulation, cells were measured by MTT method. Stimulation of cell proliferation ability was determined as the absorbance (OD) value of stimulated minus unstimulated cells for each cell sample.

How did the Kd [1] turn out when `CC(=O)/C(=N\Nc1ccccc1C(=O)O)C(=O)Nc1ccccn1` [S3-15] was run?
The Kd was 124 µM.

And the “mouse mRANKL and mouse OPG binding” value ([2]; 293T cells, 1 μM)?
Its value is “no effects”.

And the “mRANKL-OPG binding signal (fig. S4o)” value ([2]; OPG+S3-15)?
The value was 0.9339 and 0.9921 and 0.6577.

And the “human mRANKL and human OPG binding” value ([3]; 1 μM)?
Its value is “no effects”.

And the “mRANKL-OPG binding signal (fig. S4p)” value ([3]; OPG+S3-15)?
The value was 0.1995 and 0.1932 and 0.1954.

And the “luciferase activity (fig. S3g, taken as NF-κB)” value (from here on “luciferase activity”) ([4]; IL-1β stimulated + S3-15)?
Its value is 748200 and 847300 and 792000.

And the “luciferase activity” value ([4]; LPS stimulated + S3-15)?
The value was 375600 and 397200 and 396100.

And the “luciferase activity” value ([4]; TNF-α stimulated + S3-15)?
Its value is 61380 and 70860 and 74440.

What about the “NF-κB luciferase expression (fig. 6c)” value ([4]; S3-15 conc. 0.08) of the same compound?
The value was 32.0377 and 29.8492 and 26.4557.

What about the “NF-κB luciferase expression (fig. 6c)” value ([4]; S3-15 conc. 0.28) of the same compound?
Its value is 25.9787 and 28.8312 and 30.4836.

What about the “NF-κB luciferase expression (fig. 6c)” value ([4]; S3-15 conc. 0.92) of the same compound?
Its value is 26.259 and 24.0852 and 28.8361.

And the “NF-κB luciferase expression (fig. 6c)” value ([4]; S3-15 conc. 3.03)?
The value was 25.0885 and 25.1918 and 25.4328.

What about the “NF-κB luciferase expression (fig. 6c)” value ([4]; S3-15 conc. 10) of the same compound?
Its value is 23.5738 and 23.8492 and 23.6426.

What about the “NF-κB luciferase expression (fig. 6c)” value ([4]; S3-15 conc. 33) of the same compound?
The value was 17.4311 and 18.5918 and 15.8918.

And the “reporter signal (fig. S3h)” value ([4]; stimulus IL-1β)?
Its value is 348400 and 323800 and 307900.

What about the “reporter signal (fig. S3h)” value ([4]; stimulus LPS) of the same compound?
Its value is 720100 and 801600 and 826800.

What about the “reporter signal (fig. S3h)” value ([4]; stimulus TNF-α) of the same compound?
The value was 62390 and 81670 and 85200.

What about the “TNF-α, IL-β and LPS activated NF-κB” value ([4]; without RANKL) of the same compound?
Its value is “cannot affect”.

What about the Femur ultimate load [5] of the same compound?
The Femur ultimate load was 16.2764 N and 16.6572 N and 19.3534 N and 19.5584 N and 18.4846 N and 18.452 N and 16.2074 N and 13.318 N.

And the “Spleen lymphocyte transforming index” value [6]?
The value was 0.337 and 0.404 and 0.3367 and 0.4323 and 0.2993 and 0.3783 and 0.2337 and 0.316.

Reference: PMC9468151, “Identification of a binding site on soluble RANKL that can be targeted to inhibit soluble RANK-RANKL interactions and treat osteoporosis” (Nature Communications, 2022)
